Data as given in patent US20110092529A1, “1,2,4-Triazole Derivatives and Their Use as Oxytocin Antagonists” (Pfizer Inc., priority 2005, published 2011).

Molecular target: T1, oxytocin receptor (CHO-OTR/NFAT-β-Lactamase cells) (Homo sapiens, UniProt P30559)
T1 construct: expressed in transfected cells; host or cells: CHO (CHO-OTR line carrying an NFAT-β-lactamase reporter)
T1 sequence (P30559 1-389): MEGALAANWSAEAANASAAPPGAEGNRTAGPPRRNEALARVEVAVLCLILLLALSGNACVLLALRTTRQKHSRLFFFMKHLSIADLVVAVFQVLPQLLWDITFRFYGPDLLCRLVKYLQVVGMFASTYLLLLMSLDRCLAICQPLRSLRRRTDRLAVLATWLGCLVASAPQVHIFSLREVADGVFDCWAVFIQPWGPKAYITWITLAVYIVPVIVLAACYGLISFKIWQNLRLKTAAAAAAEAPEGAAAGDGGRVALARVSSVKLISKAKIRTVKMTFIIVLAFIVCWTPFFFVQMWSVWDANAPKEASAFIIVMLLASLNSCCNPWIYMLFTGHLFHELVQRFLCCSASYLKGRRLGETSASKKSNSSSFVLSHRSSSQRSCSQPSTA
Assay: Oxytocin Receptor Beta-Lactamase Assay
Assay type: cell-based
Settings: oxytocin stimulation 4 hours, read-out: oxytocin antagonist activity, expressed as a Ki value
Experimental: A suitable assay for determining the oxytocin antagonist activity of a compound is detailed herein below.
Oxytocin Receptor Beta-Lactamase Assay
Cells used are CHO-OTR/NFAT-β-Lactamase. The NFAT-β-lactamase expression construct was transfected into the CHO-OTR cell line and clonal populations were isolated via fluorescence activated cell sorting (FACS). An appropriate clone was selected to develop the assay.
Recovery of cells—A vial of frozen cells is thawed rapidly in 37° C. water bath and the cell suspension transferred into a T225 flask with 50 ml of fresh growth medium and then incubated at 37° C., 5% CO2 in an incubator until the cells adhered to the flask Replace media with 50 ml of fresh growth media the following day.
Culturing cells—CHO—OTR—NFAT-βLactamase cells were grown in growth medium. Cells were harvested when they reached 80-90% confluence removing the medium and washing with pre-warmed PBS. PBS was then removed and Trypsin/EDTA added (3 mls for T225 cm^2 flask) before incubating for 5 min in 37° C./5% CO2 incubator. When cells were detached, pre-warmed growth media was added (7 mls for T225 cm^2 flask) and the cells re-suspended and mixed gently by pipetting to achieve single cell suspension. […]
Cells grown at 80-90% confluence were harvested and counted. […]
Preparation of 1 ml of 6× Loading Buffer with Enhanced Loading Protocol (this requires scale-up according to number of plates to be screened) • 12 μl of solution A (1 mM CCF4-AM in Dry DMSO) was added to 60 μl of solution B (100 mg/ml Pluronic-F127 in DMSO+0.1% Acetic Acid) and vortexed. • The resulting solution was added to 925 μl of solution C (24% w/w PEG400, 18% TR40 v/v in water). • 75 μl of solution D was added (200 mM probenecid in 200 mM NaOH). • 10 μl of 6× Loading Buffer was added to all wells and incubated for 1.5 hrs-2 hrs at room temperature in the dark. • The plates were read using an LJL Analyst, Excitation 405 nm, Emission 450 nm and 530 nm, gain optimal, lagtime 0.40 μs integration, 4 flashes, bottom reading.

| SMILES | Ki [nM] |
| --- | --- |
| COc1ccc(-n2c(C)nnc2N2CCC3(CC2)COc2ccccc23)cn1 [Example 1, 1′-[4-(6-methoxypyridin-3-yl)-5-methyl-4H-1,2,4-triazol-3-yl]spiro[1-benzofuran-3,4′-piperidine]] | 12.9 |
| COCc1nnc(N2CCC3(CC2)OCc2cc(F)ccc23)n1-c1ccc(OC)nc1 [Example 6, 5-fluoro-1′-[5-(methoxymethyl)-4-(6-methoxypyridin-3-yl)-4H-1,2,4-triazol-3-yl]-3H-spiro[2-benzofuran-1,4′-piperidine]] | 11.5 |
| COCc1nnc(N2CCC3(CC2)OCc2ccccc23)n1-c1ccc(OC)nc1 [Example 17, 1′-[5-(methoxymethyl)-4-(6-methoxypyridin-3-yl)-4H-1,2,4-triazol-3-yl]-3H-spiro[2-benzofuran-1,4′-piperidine]] | 10.2 |
